Assay results published in patent US6645715B1, “Artificial cornea” (University of Ottawa, priority 1998, dated 2003).

Key:
reconstructed corneas [1] = experiment: Responses of reconstructed corneas to aqueous test chemicals (wound, corneal transparency); format: cell-based, human; conditions: 10% SDS, 0.01% benzalkonium chloride solution
Protocol: Each cornea was exposed centrally to 100 μl of the test chemical for 10 min, after which the chemical was washed off with saline and the corneas were re-cultured for a further 3 days. The saline-treated cornea served as the control.

reconstructed corneas [2] = experiment: Live-dead staining of reconstructed corneas after chemical exposure; format: cell-based, human; conditions: SDS; 0.01% benzalkonium chloride solution
From the text: Live cells are green, while dying or dead cells are orange-red. […] C.

[3] = tested on: corneal epithelial cell lines and primary epithelial cells; experiment: RT-PCR of mRNA expression in corneal epithelial cells after SDS exposure; format: cell-based, human
From the text: Corneal epithelial cell lines were exposed to sodium dodecyl sulfate (SDS) to characterise the changes in mRNA expression of early response genes such as c-fos and c-jun, cytokines probably involved with corneal wound healing such as interleukins (IL-1a and IL-6), basic fibroblast growth factor (bFGF), vascular endothelial growth factor (VEGF) and epidermal growth factor (EGF), and matrix molecules that are elaborated during healing such as collagens types I, III and V. Reverse transcription-polymerase chain reaction (RT-PCR) was used to examine changes in expression of the above genes in corneal epithelial cell lines compared to primary cells, and in artificial corneas compared to human corneas from the eye bank after exposure to a detergent SDS. The cells were exposed to 0.02% SDS in M199 for 2 minutes. Corneas were treated with 5% SDS in M199. Controls were dosed with M199 only. RT-PCR was performed on RNA from cells and corneas obtained at different time points after injury. Semi-quantitative analyses were conducted by introducing the housekeeping gene, glyceraldehyde-3-phosphate dehydrogenase (GAPDH) as an internal control and by Southern analysis. PCR products were sequenced to confirm their identity. Baseline levels of the 10 mRNAs examined were established in control epithelial cells and corneas (n> or =6 for each time point). […] However, changes in MRNA expression for bFGF, VEGF, EGF and collagen III were non-significant.

reconstructed corneas [4] = experiment: RT-PCR of gene expression in SDS-treated reconstructed corneas; format: cell-based, human; conditions: 5% SDS in M199; reconstructed whole corneas
Protocol: Band intensities for the indicated genes were quantitated by a phosphoimager and were divided by the intensity of the corresponding GAPDH band. Corneas were treated with 5% SDS in medium for 1 or 3 minutes, then washed twice with medium. Total RNA was extracted at 1 hour after the SDS treatment, and RT-PCR was carried out for specific primers for various genes. Reverse transcription-polymerase chain reaction (RT-PCR) was used to examine changes in expression of the above genes in corneal epithelial cell lines compared to primary cells, and in artificial corneas compared to human corneas from the eye bank after exposure to a detergent SDS. The cells were exposed to 0.02% SDS in M199 for 2 minutes. Corneas were treated with 5% SDS in M199. Controls were dosed with M199 only. RT-PCR was performed on RNA from cells and corneas obtained at different time points after injury. Semi-quantitative analyses were conducted by introducing the housekeeping gene, glyceraldehyde-3-phosphate dehydrogenase (GAPDH) as an internal control and by Southern analysis. PCR products were sequenced to confirm their identity. […] However, these changes were more marked in the reconstructed whole corneas than in the epithelial monolayers.

human eye bank corneas = experiment: RT-PCR of gene expression in human eye bank corneas after SDS exposure; format: cell-based; conditions: 5% SDS in M199
Protocol: Reverse transcription-polymerase chain reaction (RT-PCR) was used to examine changes in expression of the above genes in corneal epithelial cell lines compared to primary cells, and in artificial corneas compared to human corneas from the eye bank after exposure to a detergent SDS. The cells were exposed to 0.02% SDS in M199 for 2 minutes. Corneas were treated with 5% SDS in M199. Controls were dosed with M199 only. RT-PCR was performed on RNA from cells and corneas obtained at different time points after injury. Semi-quantitative analyses were conducted by introducing the housekeeping gene, glyceraldehyde-3-phosphate dehydrogenase (GAPDH) as an internal control and by Southern analysis. PCR products were sequenced to confirm their identity.

[5] = 0.02% SDS in M199 for 2 minutes, within 1 hour of injury, primary epithelial cells and cell lines

SMILES: CCCCCCCCCCCCOS(=O)(=O)[O-].[Na+] [SDS, sodium dodecyl sulfate]
- wound / change of corneal transparency (reconstructed corneas [1]; 100 μl centrally for 10 min, washed off with saline, re-cultured 3 days): caused wounds to the centre of the cornea
- healing of the wound (reconstructed corneas [1]; 100 μl for 10 min, re-cultured a further 3 days): still unhealed
- live-dead staining, epithelial cells (reconstructed corneas [2]): mostly dead and dying cells
- live-dead staining, stromal cells (reconstructed corneas [2]): orange-red dead or dying cells
- penetration into the stromal compartment (reconstructed corneas [2]): penetration of the detergent into the stroma
- IL-1a mRNA expression ([3]; 0.02% SDS for 2 minutes): increased expression
- IL-6 mRNA expression ([3]; 0.02% SDS for 2 minutes): increased expression
- changes in mRNA expression for EGF ([3]; 0.02% SDS for 2 minutes): non-significant
- changes in mRNA expression for VEGF ([3]; 0.02% SDS for 2 minutes): non-significant
- changes in mRNA expression for bFGF ([3]; 0.02% SDS for 2 minutes): non-significant
- changes in mRNA expression for collagen III ([3]; 0.02% SDS for 2 minutes): non-significant
- collagen I mRNA expression ([3]; 0.02% SDS for 2 minutes): increased expression
- collagen V mRNA expression ([3]; 0.02% SDS for 2 minutes): increased expression
- expression of c-fos, time course ([3]; 0.02% SDS for 2 minutes, 24 hours): returned to baseline levels by the end of 24 hours
- expression of c-jun, time course ([3]; 0.02% SDS for 2 minutes, until day 6): remained high until day 6 after injury
- expression of c-fos [3, 5]: significantly increased
- expression of c-jun [3, 5]: significantly increased
- extent of changes in gene expression versus epithelial monolayers (reconstructed corneas [4]): more marked
- changes in gene expression (human eye bank corneas): responded to SDS exposure with changes in gene expression
